One series concerns the target T1, MPO (Homo sapiens, UniProt P05164).
T1 sequence (P05164 49-745): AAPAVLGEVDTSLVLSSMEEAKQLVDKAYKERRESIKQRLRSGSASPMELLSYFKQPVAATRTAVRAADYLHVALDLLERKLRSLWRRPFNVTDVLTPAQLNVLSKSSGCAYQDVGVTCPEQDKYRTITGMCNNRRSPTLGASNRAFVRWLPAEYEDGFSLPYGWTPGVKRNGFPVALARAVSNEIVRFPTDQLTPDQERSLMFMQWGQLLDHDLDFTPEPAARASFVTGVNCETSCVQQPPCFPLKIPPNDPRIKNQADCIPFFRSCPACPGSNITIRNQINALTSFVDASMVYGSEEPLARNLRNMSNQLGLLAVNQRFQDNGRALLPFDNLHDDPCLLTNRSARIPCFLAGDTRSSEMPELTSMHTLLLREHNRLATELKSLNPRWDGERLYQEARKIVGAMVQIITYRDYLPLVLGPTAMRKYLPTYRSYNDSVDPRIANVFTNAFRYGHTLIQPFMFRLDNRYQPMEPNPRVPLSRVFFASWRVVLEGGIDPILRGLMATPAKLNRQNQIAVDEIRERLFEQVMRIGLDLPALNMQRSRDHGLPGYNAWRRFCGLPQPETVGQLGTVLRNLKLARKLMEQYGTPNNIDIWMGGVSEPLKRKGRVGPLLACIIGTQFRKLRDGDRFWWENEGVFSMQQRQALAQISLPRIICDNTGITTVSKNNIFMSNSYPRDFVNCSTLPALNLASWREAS
Nature of the series: SPECT-CT imaging of MPO/Matrigel implants with 111In tracer. Type of series: in vivo, mouse. Also on record: purchased BioDesign, Inc. The method, then:
(§1) Ten-week old C57BL6 male mice were obtained from Jackson Laboratories. A total of 22 mice were used for the study. • 1. MPO/Matrigel imaging experiments: Matrigel™ (Beckton-Dickinson), a […] basement membrane matrix gel was used to immobilize human MPO and glucose oxidase (to supply H2O2 required for detecting MPO oxidative activity, Calbiochem). This was chosen to reflect deposits of human MPO in inflamed tissue in a mouse model. 400 μL of a mixture of Matrigel™ and MEM (Cambrex) was injected slowly into the thighs of each mouse one hour prior to imaging. The right thigh mixture also contained 15 U of MPO and 4 U of glucose oxidase (Calbiochem), while the left thigh mixture contained no enzyme and thus serves as an internal control. A total of 15 mice were used (3 mice each for 5-HT-DOTA(Gd), bis-5-HT-DTPA(Gd), bis-5-HT-DTPA-^111In, bis-tyramide-DTPA(Gd), and DTPA(Gd)). • 2. LPS/Matrigel experiments (n=3): This model was developed to induce endogeneous mouse MPO secretion and activation. 200 μL total volume Matrigel containing 10% heparin was injected slowly into the thighs of the mice 4 days prior to imaging. The right-sided mixture also contained E. coli lipopolysaccharide (LPS) at 10 μg/mL. One mouse was sacrificed for immunohistochemistry. • 3. Myositis experiments (n=4): LPS at 100 μg/mL in PBS was injected into each mouse intramuscularly in the right flank to produce myositis. The mice are imaged 24 hours after injection.
(§2) 80-100 μCi of ^111In-bis-5-HT-DTPA in 200 μL of saline was injected intravenously into three mice prepared in the same manner as in the MPO/Matrigel MR imaging experiments. The animals were imaged 3 hours after injection on a high resolution X-SPECT/CT system (Gamma Medica). Six hours after injection, the animals were sacrificed and biodistribution was determined in major organs. The % dose accumulated per gram of major organs was determined by using the 1480 Wizard gamma counter (Perkin-Elmer).

The nature of series [1]: Biodistribution of 111In tracer. Type of series: in vivo, mouse. Conditions: mice, 6 h post injection. The method, then: as §2
For a further series, the target named is T2, human neutrophil MPO (Homo sapiens, UniProt P05164).
T2 construct: purchased BioDesign Inc
Nature of the series: MPO-mediated polymerization of DOTA(Gd) substrates: T1/T2 relaxivity change. Type of series: biochemical. Conditions: for relaxivity ratio: ˜2000 U of MPO activity. As to the method:
(§3) Reactions with HRP and MPO were carried out at room temperature in the presence of 0.5-1 mM substrate dissolved in 0.5 ml PBS containing H2O2 (2 mM). Reaction was initiated by adding an aliquot containing the enzyme (either HRP or MPO) and vortexing. After at least a 30 min incubation period T1 was measured using inversion-recovery pulse sequence Bruker Minispec (Buker Analytics, North Bellirica Mass.) at 0.47 T (20 MHz). Size-exclusion HPLC of reaction products was performed on TSK G3000SWXL macroporous column (Supelco) eluted with 0.1 M triethylammonium acetate, pH 7.0 at 1 ml/min.
(§4) Standard 96-well plates were prepared and imaged on a 1.5 T whole body clinical General Electric Signa MRI scanner utilizing a standard 3 inch surface coil. Inversion recovery sequences were used to measure T1 relaxation and spin echo sequences were utilized to measure T2 relaxation. T2 weighted images were obtained with TR=5000 ms and TE=100 ms with a fast spin echo sequence. T1 weighted images were obtained with spin echo sequences with the following parameters: TR=100, 200, 350, or 500, TE=11. For the Matrigel™ experiments, a relatively T2 weighted image was obtained at TR=300 ms and TE=200 ms. Single-exponential models were used to obtain T1 and T2. The relaxivities were computed by normalizing relaxation rates to the concentration of gadolinium in each sample, obtained by inductive coupled plasma (ICP) analysis performed by Galbraith Laboratories.
To determine the effect of myeloperoxidase on the substrates, we performed T1 and T2 relaxivity measurements in aqueous solutions, with and without MPO and hydrogen peroxide, at 0.47 T and 1.5 T (the results are summarized in FIGS. 3A and 3B for tyramide-DOTA(Gd) and FIGS. 4A and 4B for 5-HT-DOTA(Gd)). For reference, the two substrates were also reacted with HRP (solid symbols in FIGS. 3A and 3B and FIGS. 4A and 4B).

The target of series [2] is T3, horseradish peroxidase (HRP) (Armoracia rusticana, UniProt P00433).
T3 sequence (P00433 31-338): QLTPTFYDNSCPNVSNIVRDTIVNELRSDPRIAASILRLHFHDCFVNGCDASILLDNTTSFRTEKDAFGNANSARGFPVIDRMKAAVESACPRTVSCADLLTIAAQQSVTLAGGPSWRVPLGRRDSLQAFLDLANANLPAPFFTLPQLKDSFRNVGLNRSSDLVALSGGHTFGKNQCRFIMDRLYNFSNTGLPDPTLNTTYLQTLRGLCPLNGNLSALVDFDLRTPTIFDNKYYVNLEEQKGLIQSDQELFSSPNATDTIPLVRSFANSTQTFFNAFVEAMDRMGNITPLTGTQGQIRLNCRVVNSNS
As to the kind of experiment: HRP-mediated polymerization of DOTA(Gd) substrates: relaxivity change. Type of series: biochemical. Also on record: purchased Sigma. As to the method:
as §3
as §4, with “The relaxivities were computed by normalizing relaxation rates to the concentration of gadolinium in each sample, obtained by inductive coupled plasma (ICP) analysis performed by Galbraith Laboratories.” left out

The target of series [3] is T3, horseradish peroxidase (HRP). As to the kind of experiment: Pseudo-first-order rate constants of HRP-mediated conversion (relaxation times over time, 0.47 T). Conditions: from T1 measurements, mean±SD. Type of series: biochemical, horseradish. Also on record: purchased Sigma-Aldrich type XII (catalogue number not given). As to the method: Kinetics of the samples were observed by measuring T1 and T2 at 0.47 T and 40° C. of the samples over at least a 24 hour period. At different time points, 1 M of sodium azide (final concentration=0.17 M) was added to stop the enzyme mediated reaction. The resultant progress curve was fitted with an empirical mathematical model and analyzed according to the Guggenheim method to obtain the pseudo-first-order rate constants (Guggenheim E A. Philos. Mag. 1926; 2:538).
An important property of a suitable substrate for an enzyme is the kinetics of enzymatic reaction. To determine the utility of the paramagnetic complexes as suitable substrates for human myeloperoxidase (MPO), we measured the pseudo-first-order rate constant of these substrates in MPO, and compared to the same substrates' reactions in Horse Radish Peroxidase (HRP) by monitoring the changes in relaxation time over time. […] The results shown were obtained using T1 measurements. T2 measurements yielded nearly identical results. The results are presented as mean±SD. N/A=not applicable.

For another series, the target named is T4, MPO-I (Homo sapiens, UniProt P05164).
T4 sequence (P05164 49-745): T1 sequence (P05164 49-745)
Particulars: cited from earlier work.

Series [4] deals with T5, human MPO embedded in Matrigel (Homo sapiens, UniProt P05164).
T5 construct: purchased BioDesign, Inc
T5 sequence (P05164 49-745): T1 sequence (P05164 49-745)
Nature of the series: MPO/Matrigel implant mouse model, T1-weighted MR imaging. Type of series: in vivo. Conditions: mice; right MPO/Matrigel vs left control; 1.5 T. As to the method: To evaluate the monomeric substrates in vivo, we devised a mouse model that harbored 400 μL of Matrigel basement membrane matrix gel mixed 1:1 by volume with a solution containing 15 U of human MPO and glucose oxidase (as a source of hydrogen peroxide) that was injected into the right flank of the mouse. The left flank was injected with the enzyme-free Matrigel mixture. We subsequently performed T1-weighted MR imaging after the intravenous injection of Gd-DTPA-diSer substrate at the dose of […].
The MR imaging experiments were performed on a 1.5 T GE Excite scanner and a 4.7 T Bruker Pharmascan scanner. For all MR imaging experiments, precontrast T2-(TR=2000, TE=100, ETL=8, NEX=4, fast spin echo sequence) and T1-weighted images (TR=500, TE=11, NEX=4, spin echo sequence) with fat saturation were initially performed to locate the gels or area of inflammation. The substrates (0.3 mmol/kg) were subsequently injected via the tail vein of the mouse. The mouse was immediately imaged after the injection of the contrast agent using multiple T1-weighted sequences with fat saturation for at least 3 hours.
as §1
For normalized signal intensity measured on T1-weighted images, mean±standard deviation (SD) values were calculated in regions of interest (ROI). Contrast-to-noise (CNR) ratios were computed for each ROI according to the formula

Take `O=C([O-])CN(CCN(CC(=O)[O-])CC(=O)NCCc1c[nH]c2ccc(O)cc12)CCN(CC(=O)[O-])CC(=O)NCCc1c[nH]c2ccc(O)cc12.[111In+3]` [^111In-bis-5-HT-DTPA]: the “increase in the radioactivity of the right leg (with MPO) vs. the left leg (without MPO)” value at MPO (mice n=3, SPECT-CT 3 hours after injection) is listed as 2.3±0.3 fold. Also, the “increase in count in the dissected gel with embedded MPO” value on MPO (mice, 6 h post injection) is “greater than 4 fold”. Besides, on MPO (mouse, SPECT/CT 3 hours after the injection), the “uptake on the side containing MPO” value is recorded as “significant increased uptake”. Also, the injected dose excreted in series [1] was 90%. Moreover, the “organs holding most of the remaining dose” value in series [1] is “spleen, bowel, kidney, and liver”; in series [1] (listed as 111In-chelated monomeric substrate), “spleen, kidneys, bowel, and liver”.
As for `CC(C(=O)NCC(=O)NCCc1ccc(O)c(O)c1)N1CCN(CC(=O)[O-])CCN(CC(=O)[O-])CCN(CC(=O)[O-])CC1.[Gd+3]` (stereo not shown) [hydroxytyramide-DOTA(Gd), Glycylmethyl DOTA(Gd) Hydroxytyramide], on human neutrophil MPO, the “reaction with MPO” value was “does not react with MPO” and the “relaxivity increase from reaction with MPO” value was “did not result in a substantially significant relaxivity increase”.
For the molecule `CC(C(=O)NCC(=O)NCCc1ccc(O)cc1)N1CCN(CC(=O)[O-])CCN(CC(=O)[O-])CCN(CC(=O)[O-])CC1.[Gd+3]` (stereo not shown) [tyramide-DOTA(Gd), Glycylmethyl DOTA(Gd) Tyramide], the relaxivity ratio result was “about 2.3 times” in series [2] (0.47 T), “about 2.1 times” in series [2] (1.5 T), 1.7 times at human neutrophil MPO (0.47 T) and 1.4 times on human neutrophil MPO (1.5 T). Also, in series [3], the “Pseudo first-order rate constant” value was 0.0095 s⁻¹. Moreover, the “T1 shortening relative to the HRP result” value at human neutrophil MPO (2000 U MPO) is listed as 70-75%. For the same molecule, the “MPO needed to reach >90% of the T1 shortening seen with HRP” value on human neutrophil MPO (assuming a linear response to the amount of MPO) is above 3000 U. Moreover, the “increase in relaxivity of polymer product” value at human neutrophil MPO (equivalent amount of MPO, clinical imaging strength) stood at 1.4 times.
As for `NCCc1c[nH]c2ccc(O)cc12` [serotonin, 3-(2-aminoethyl)-5-hydroxyindole], the “MPO-mediated oxidation in excess chloride” value at MPO-I (about 5,000 times higher excess of chloride) is recorded as “could not be completely stopped”. Further, on MPO-I (neutral pH), the “kinetic constant of the MPO-I reaction relative to the reaction with chloride” value is recorded as “about 10 times”.
Turning to `O=C(O)CN(CCN(CC(=O)O)CC(=O)NCCc1c[nH]c2ccc(O)cc12)CCN(CC(=O)O)CC(=O)NCCc1c[nH]c2ccc(O)cc12` [Compound 2], the “enhancement of MPO implant compared with control implant” value in series [4] is given as “significantly increased enhancement”.

The record behind these values is patent US8153784B2, “Imaging of enzyme activity” (The General Hospital Corporation, priority 2004, dated 2012).
